Values quoted from earlier work, collected in patent US20080033027A1, “Drug combination pharmaceutical compositions and methods for using them” (VICUS THERAPEUTICS SPE 1, LLC, priority 2005, published 2008).
Where a name gives a salt, the structure may show the parent alone. Read-outs that look alike come from different tables or passages of the source.

How the values were obtained:
[1] = oral EPA, after entering the blood stream
[2] = for Elimination (% unchanged): value in parentheses; for Elimination, Renal (%): share eliminated by the renal route; for Elimination, Biliary/fecal (%): share eliminated by the biliary/fecal route
[3] = system: cachectic severely burned children; cachectic metastatic cancer patients
[4] = for solubility in ethanol / alcohol: alcohol(s)
[5] = cachectic metastatic cancer patients
[6] = cachectic severely burned children

| SMILES | Biotransformation ([2]; in vivo) | Elimination (route) ([2]; in vivo) | Half-life ([2]; in vivo) | Oral Absorp. (%) ([2]; in vivo) | Time to Peak Effect Single dose [2] | Elimination (% unchanged) [2] | Elimination, Renal (%) [2] | Removable by Hemodialysis ([2]; in vivo) | further results |
| --- | --- | --- | --- | --- | --- | --- | --- | --- | --- |
| CC/C=C\C/C=C\C/C=C\C/C=C\C/C=C\CCCC(=O)O [EPA, eicosapentaenoic acid] |  |  |  |  |  |  |  |  | cleared in the first pass (liver) [1]: ≤ 90% |
| CC(C)(C)NCC(O)COc1cccc2c1CCC(=O)N2 (stereo not shown) [Carteolol] | Hepatic | Renal | 6 h | 85% | 1 to 3 h | (50-70) % |  |  |  |
| CC(C)NCC(O)COc1ccc(CC(N)=O)cc1 (stereo not shown) [Atenolol] |  |  |  | 50-60% | 2 to 4 h |  | 85-100% |  |  |
| CC(C)NCC(O)COc1cccc2ccccc12.Cl (stereo not drawn) [Propranolol, 2-Propanol, 1-[(1-methylethyl)amino]-3-(1-naphthalenyloxy)-, hydrochloride, (+)-] |  |  | 3 to 5 h |  |  |  |  |  | adverse events ([3]; both previous trials): No adverse events were reported; elevated inflammatory cytokines [3, 5]: reduction; elevated resting energy expenditure [3, 5]: reduction; elevated inflammatory cytokines [3, 6]: reduction; elevated resting energy expenditure [3, 6]: reduction; rate of loss of lean body mass [3, 6]: reduction; stability of the solid ([4]; crystalline solid): stable; solubility in ethanol / alcohol [4]: readily soluble; solubility in water [4]: readily soluble |
| CC(C)NCC(O)COc1ccc(CCOCC2CC2)cc1 (stereo not shown) [Betaxolol] | Hepatic |  | 14 to 22 h | 80-89% | 3 to 4 h | 15% | > 80% | No |  |
| COCCc1ccc(OCC(O)CNC(C)C)cc1 (racemic) [Metoprolol succinate, (±)1-(isopropylamino)-3-[p-(2-methoxyethyl)phenoxy]-2-propanol succinate (2:1) (salt)] |  |  |  |  |  |  |  |  | solubility in ethanol / alcohol [4]: sparingly soluble; solubility in water [4]: freely soluble |
| C=CCOc1ccccc1OCC(O)CNC(C)C (stereo not shown) [Oxprenolol] | Hepatic | Renal | 1.3 to 1.5 h | 90% |  | < 5% |  |  |  |
| CC(C)NCC(O)COc1ccc(COCCOC(C)C)cc1 (stereo not shown) [Bisoprolol] | Hepatic | Renal | 9 to 12 h | 80-90% |  | 50% |  | No | Elimination, Biliary/fecal (%) [2]: <2% Fecal; Half-life ([2]; stated in the text): 10 to 12 h |
| CC(C)(C)NCC(O)COc1cccc2c1CC(O)C(O)C2 (stereo not shown) [Nadolol] | None | Renal | 20 to 24 h | 30% | 4 h | 70% |  | Yes | Half-life ([2]; stated in the text): 10 to 24 h; route of elimination ([2]; stated in the text): kidney excreted |
| CC(CCc1ccccc1)NCC(O)c1ccc(O)c(C(N)=O)c1 (stereo not shown) [Labetalol] | Hepatic | Biliary/fecal |  | 100% |  | < 5% | 55-60% | No | Half-life (hr) ([2]; IV): ~5.5 IV hr; Half-life (hr) ([2]; oral): 6-8 oral hr; Time to Peak Effect Single dose ([2]; IV): 0.083 h (IV); Time to Peak Effect Single dose ([2]; oral): 2 to 4 h |
| CC(C)NCC(O)c1ccc(NS(C)(=O)=O)cc1 (stereo not shown) [Sotalol] |  | Renal | 7 to 18 h | >80% |  | 75% |  |  |  |
| CCc1cccc2c3c([nH]c12)C(CC)(CC(=O)O)OCC3 (single isomer, unassigned; (+)) [Etodolac, (+) 1,8-diethyl-1,3,4,9-tetrahydropyrano-[3,4-b]indole-1-acetic acid] |  |  |  |  |  |  |  |  | GI complications rate (among non-specific Cox inhibitors): lowest; cardiovascular events (compared with specific cox2 inhibitors): without the reported increase; solubility in ethanol / alcohol [4]: soluble; solubility in water [4]: insoluble |
| COCCc1ccc(OCC(O)CNC(C)C)cc1 (stereo not shown) [Metoprolol] |  |  | 3 to 7 h |  |  |  |  |  |  |
| COCCc1ccc(OCC(O)CNC(C)C)cc1 (racemic) [Metoprolol tartrate, (±)-1-(isopropylamino)-3-(p-(2-(methoxyethyl)phenoxy)-2-propanol (2:1) dextrotartrate salt] |  |  |  |  |  |  |  |  | solubility in ethanol / alcohol [4]: freely soluble; solubility in water [4]: very soluble |
| COc1ccccc1OCCNCC(O)COc1cccc2[nH]c3ccccc3c12 (stereo not shown) [Carvedilol] | Hepatic |  | 7 to 10 h | 25-35% |  |  | <2% Renal | No |  |
| CCCC(=O)Nc1ccc(OCC(O)CNC(C)C)c(C(C)=O)c1 (stereo not shown) [Acebutolol] |  |  | 3 to 4 h | 70% |  |  | 30-40% |  | Elimination, Biliary/fecal (%) [2]: 50-60% |
| CC(C)(C)NC[C@H](O)COc1nsnc1N1CCOCC1 [Timolol] | Hepatic |  | 4 h | 90% | 1 to 2 h | 20% |  | No | Elimination (route) ([2]; in vivo, fecal elimination): Fecal; Elimination (route) ([2]; in vivo, renal elimination): Renal |
| CC(C)NCC(O)COc1cccc2[nH]ccc12 (stereo not shown) [Pindolol] |  | Renal | 3 to 4 h | 90-100% |  | 40% |  |  |  |
| CC(C)(C)NC[C@H](O)COc1ccccc1C1CCCC1 [Penbutolol] | Hepatic |  | 5 h | 100% | 1.5 to 3 h | 0% | 90% | No |  |
